Source: ChEMBL document CHEMBL4177730, “Rational modification of semaxanib and sunitinib for developing a tumor growth inhibitor targeting ATP binding site of tyrosine kinase” (2018)
Active and inactive are the calls of the source.

Assays:
Type in all cases: functional, cell-based
CCRF-CEM = experiment: Growth inhibition of human CCRF-CEM cells at 10 uM after 48 hrs by sulforhodamine B assay
HL-60(TB) = experiment: Growth inhibition of human HL-60(TB) cells at 10 uM after 48 hrs by sulforhodamine B assay
K562 = experiment: Growth inhibition of human K562 cells at 10 uM after 48 hrs by sulforhodamine B assay
MOLT-4 = experiment: Growth inhibition of human MOLT4 cells at 10 uM after 48 hrs by sulforhodamine B assay
RPMI-8226 = experiment: Growth inhibition of human RPMI8226 cells at 10 uM after 48 hrs by sulforhodamine B assay
SR = experiment: Growth inhibition of human SR cells at 10 uM after 48 hrs by sulforhodamine B assay
A549 = experiment: Growth inhibition of human A549/ATCC cells at 10 uM after 48 hrs by sulforhodamine B assay
EKVX = experiment: Growth inhibition of human EKVX cells at 10 uM after 48 hrs by sulforhodamine B assay
HOP-62 = experiment: Growth inhibition of human HOP62 cells at 10 uM after 48 hrs by sulforhodamine B assay
HOP-92 = experiment: Growth inhibition of human HOP92 cells at 10 uM after 48 hrs by sulforhodamine B assay
NCI-H226 = experiment: Growth inhibition of human NCI-H226 cells at 10 uM after 48 hrs by sulforhodamine B assay
NCI-H23 = experiment: Growth inhibition of human NCI-H23 cells at 10 uM after 48 hrs by sulforhodamine B assay
NCI-H322M = experiment: Growth inhibition of human NCI-H322M cells at 10 uM after 48 hrs by sulforhodamine B assay
NCI-H460 = experiment: Growth inhibition of human NCI-H460 cells at 10 uM after 48 hrs by sulforhodamine B assay
NCI-H522 = experiment: Growth inhibition of human NCI-H522 cells at 10 uM after 48 hrs by sulforhodamine B assay
COLO 205 = experiment: Growth inhibition of human COLO205 cells at 10 uM after 48 hrs by sulforhodamine B assay
HCC 2998 = experiment: Growth inhibition of human HCC2998 cells at 10 uM after 48 hrs by sulforhodamine B assay
HCT-116 = experiment: Growth inhibition of human HCT116 cells at 10 uM after 48 hrs by sulforhodamine B assay
HCT-15 = experiment: Growth inhibition of human HCT15 cells at 10 uM after 48 hrs by sulforhodamine B assay
HT-29 = experiment: Growth inhibition of human HT-29 cells at 10 uM after 48 hrs by sulforhodamine B assay
KM12 = experiment: Growth inhibition of human KM12 cells at 10 uM after 48 hrs by sulforhodamine B assay
SW-620 = experiment: Growth inhibition of human SW620 cells at 10 uM after 48 hrs by sulforhodamine B assay
SF-268 = experiment: Growth inhibition of human SF268 cells at 10 uM after 48 hrs by sulforhodamine B assay
SF-295 = experiment: Growth inhibition of human SF295 cells at 10 uM after 48 hrs by sulforhodamine B assay
SF-539 = experiment: Growth inhibition of human SF539 cells at 10 uM after 48 hrs by sulforhodamine B assay
SNB-19 = experiment: Growth inhibition of human SNB19 cells at 10 uM after 48 hrs by sulforhodamine B assay
SNB-75 = experiment: Growth inhibition of human SNB75 cells at 10 uM after 48 hrs by sulforhodamine B assay
U-251 = experiment: Growth inhibition of human U251 cells at 10 uM after 48 hrs by sulforhodamine B assay
LOX IMVI = experiment: Growth inhibition of human LOXIMVI cells at 10 uM after 48 hrs by sulforhodamine B assay
Malme-3M = experiment: Growth inhibition of human MALME-3M cells at 10 uM after 48 hrs by sulforhodamine B assay
M14 = experiment: Growth inhibition of human M14 cells at 10 uM after 48 hrs by sulforhodamine B assay
MDA-MB-435 = experiment: Growth inhibition of human MDA-MB-435 cells at 10 uM after 48 hrs by sulforhodamine B assay
SK-MEL-2 = experiment: Growth inhibition of human SK-MEL-2 cells at 10 uM after 48 hrs by sulforhodamine B assay
SK-MEL-28 = experiment: Growth inhibition of human SK-MEL-28 cells at 10 uM after 48 hrs by sulforhodamine B assay
SK-MEL-5 = experiment: Growth inhibition of human SK-MEL-5 cells at 10 uM after 48 hrs by sulforhodamine B assay
UACC-62 = experiment: Growth inhibition of human UACC62 cells at 10 uM after 48 hrs by sulforhodamine B assay
IGROV-1 = experiment: Growth inhibition of human IGROV1 cells at 10 uM after 48 hrs by sulforhodamine B assay
OVCAR-3 = experiment: Growth inhibition of human OVCAR3 cells at 10 uM after 48 hrs by sulforhodamine B assay
OVCAR-4 = experiment: Growth inhibition of human OVCAR4 cells at 10 uM after 48 hrs by sulforhodamine B assay
OVCAR-5 = experiment: Growth inhibition of human OVCAR5 cells at 10 uM after 48 hrs by sulforhodamine B assay
OVCAR-8 = experiment: Growth inhibition of human OVCAR8 cells at 10 uM after 48 hrs by sulforhodamine B assay
NCI/ADR-RES = experiment: Growth inhibition of human NCI-ADR-RES cells at 10 uM after 48 hrs by sulforhodamine B assay
SK-OV-3 = experiment: Growth inhibition of human SKOV3 cells at 10 uM after 48 hrs by sulforhodamine B assay
786-0 = experiment: Growth inhibition of human 786-0 cells at 10 uM after 48 hrs by sulforhodamine B assay
A498 = experiment: Growth inhibition of human A498 cells at 10 uM after 48 hrs by sulforhodamine B assay
ACHN = experiment: Growth inhibition of human ACHN cells at 10 uM after 48 hrs by sulforhodamine B assay
CAKI-1 = experiment: Growth inhibition of human CAKI-1 cells at 10 uM after 48 hrs by sulforhodamine B assay
RXF 393 = experiment: Growth inhibition of human RXF393 cells at 10 uM after 48 hrs by sulforhodamine B assay
SN12C = experiment: Growth inhibition of human SN12C cells at 10 uM after 48 hrs by sulforhodamine B assay
TK-10 = experiment: Growth inhibition of human TK10 cells at 10 uM after 48 hrs by sulforhodamine B assay
UO-31 = experiment: Growth inhibition of human UO31 cells at 10 uM after 48 hrs by sulforhodamine B assay
PC-3 = experiment: Growth inhibition of human PC3 cells at 10 uM after 48 hrs by sulforhodamine B assay
DU-145 = experiment: Growth inhibition of human DU145 cells at 10 uM after 48 hrs by sulforhodamine B assay
MCF7 = experiment: Growth inhibition of human MCF7 cells at 10 uM after 48 hrs by sulforhodamine B assay
MDA-MB-231 = experiment: Growth inhibition of human MDA-MB-231 cells at 10 uM after 48 hrs by sulforhodamine B assay
Hs-578T = experiment: Growth inhibition of human Hs 578T cells at 10 uM after 48 hrs by sulforhodamine B assay
BT-549 = experiment: Growth inhibition of human BT549 cells at 10 uM after 48 hrs by sulforhodamine B assay
T47D = experiment: Growth inhibition of human T47D cells at 10 uM after 48 hrs by sulforhodamine B assay
MDA-MB-468 = experiment: Growth inhibition of human MDA-MB-468 cells at 10 uM after 48 hrs by sulforhodamine B assay

Measured: growth inhibition (GI)

O=C1/C(=C\c2cccn2C(=O)c2ccc(Cl)s2)c2ccccc2N1c1c(Cl)cccc1Cl
inactive: all assays above
